# Like-named read-outs stand apart in the source and are kept apart here.
# Key:
# S. typhimurium S18 = experiment: MIC against veterinary bacteria in vitro
# Procedure: (§1) The activity of the compounds of the Examples against various veterinarily important bacteria, was assayed in vitro using two-fold serial dilutions in Diagnostic Sensitivity Test Agar inoculated with 10^4 organisms.
# [1] = test system: M. bovigenitalium ATCC 14173; experiment: MIC against mycoplasma in vitro; type: cell-based
# [2] = test system: M. suipneumoniae NCTC 10110; experiment: MIC against mycoplasma in vitro; type: cell-based; conditions: M. suipneumoniae NCTC 10110, 6 days, 37° C.
# [3] = test system: Erysipelothrix rhusiopathiae NCTC 8163; experiment: MIC against veterinary bacteria in vitro
# Procedure: as §1
# Strep. uberis SPU1 = experiment: MIC against veterinary bacteria in vitro
# Procedure: as §1
# [4] = test system: Staph. aureus 152 (pen. sens); experiment: MIC against veterinary bacteria in vitro
# Procedure: as §1
# M. suipneumoniae Str. 11 = experiment: MIC against mycoplasma in vitro; type: cell-based
# [5] = test system: Haemophilus influenzae Q1; experiment: MIC against human bacteria in vitro; type: cell-based; conditions: Haemophilus influenzae Q1; 5% chocolated horse blood agar, 18 hours; read-out: MIC
# Past. haemolytica PA5 = experiment: MIC against veterinary bacteria in vitro
# Procedure: as §1
# M. pneumoniae ATCC 15492 = experiment: MIC against mycoplasma in vitro; type: cell-based
# M. suipneumoniae JF 435 = experiment: MIC against mycoplasma in vitro; type: cell-based
# [6] = test system: Haemophilus influenzae Wy21; experiment: MIC against human bacteria in vitro; type: cell-based
# M. bovis NCTC 10131 = experiment: microbe, parasite or virus in culture; type: cell-based
# [7] = test system: M. suipneumoniae J2206/183^b; experiment: MIC against mycoplasma in vitro; type: cell-based; conditions: M. suipneumoniae J2206/183^b, 6 days, 37° C.
# [8] = test system: Neisseria catarrhalis 1502; experiment: MIC against human bacteria in vitro; type: cell-based; conditions: Neisseria catarrhalis 1502; 5% chocolated horse blood agar, 18 hours; read-out: MIC
# [9] = test system: Strep. pyogenes R80/421-A; experiment: MIC against human bacteria in vitro; type: cell-based; conditions: Strep. pyogenes R80/421-A, 5% chocolated horse blood agar, 18 hours
# [10] = test system: M. hyosynoviae ATCC 25591; experiment: MIC against mycoplasma in vitro; type: cell-based; conditions: M. hyosynoviae ATCC 25591, 6 days, 37° C.
# [11] = test system: Ps. aeruginosa NCTC 10662; experiment: MIC against human bacteria in vitro; type: cell-based; conditions: Ps. aeruginosa NCTC 10662, 5% chocolated horse blood agar, 18 hours
# [12] = test system: Corynebacterium pyogenes CY1; experiment: MIC against veterinary bacteria in vitro
# Procedure: as §1
# M. gallisepticum S6 = experiment: MIC against mycoplasma in vitro; type: cell-based
# Staph. aureus Oxford = experiment: MIC against veterinary bacteria in vitro
# Procedure: as §1
# M. suipneumoniae NB12 = experiment: MIC against mycoplasma in vitro; type: cell-based; conditions: Mesomycoplasma hyopneumoniae
# E. coli NCTC 10418 = experiment: MIC against veterinary bacteria in vitro
# Procedure: as §1
# B. subtilis ATCC 6633 = experiment: MIC against veterinary bacteria in vitro
# Procedure: as §1
# [13] = Salmonella enterica, TYPHIMURIUM, 18 h
# [14] = 144 h, M. bovigenitalium ATCC 14173, 6 days, 37° C., read-out: MIC
# [15] = Mesomycoplasma hyopneumoniae, NCTC10110, 144 h, read-out: MIC
# [16] = Erysipelothrix rhusiopathiae, NCTC8163, 18 h
# [17] = Streptococcus uberis, SPU1, 18 h
# [18] = Mesomycoplasma hyopneumoniae, 144 h, M. suipneumoniae Str. 11, 6 days, 37° C., read-out: MIC
# [19] = Mannheimia haemolytica, PA5, 18 h
# [20] = Mycoplasmoides pneumoniae, ATCC15492, 144 h, M. pneumoniae ATCC 15492, 6 days, 37° C., read-out: MIC
# [21] = Mesomycoplasma hyopneumoniae, JF435, 144 h, M. suipneumoniae JF 435, 6 days, 37° C., read-out: MIC
# [22] = Haemophilus influenzae Wy21, 5% chocolated horse blood agar, 18 hours, read-out: MIC
# [23] = Mesomycoplasma hyopneumoniae, 144 h, read-out: MIC
# [24] = Streptococcus pyogenes, read-out: MIC
# [25] = Pseudomonas aeruginosa, NCTC10662, read-out: MIC
# [26] = Mycoplasmoides gallisepticum, 144 h, M. gallisepticum S6, 6 days, 37° C., read-out: MIC
# [27] = 144 h, M. suipneumoniae NB12, Friis broth, 0.9% agarose, 6 days, 37° C., read-out: MIC
# [28] = Escherichia coli, NCTC10418, 18 h
compound,measurement,setting,value
"COC(=O)c1ccc(-c2cnc(/C=C(\C)C[C@@H]3OC[C@H](C[C@@H]4O[C@H]4[C@@H](C)[C@H](C)O)[C@@H](O)[C@H]3O)o2)cc1 [Example 16, 5-p-Methoxycarbonylphenyl-2-(1-normon-2-yl) oxazole A]",MIC,S. typhimurium S18; [13],> 80 µg/mL
same,MIC,[1]; [14],0.1 µg/mL
same,MIC,[2]; [15],0.5 µg/mL
same,MIC,[3]; [16],80 µg/mL
same,MIC,Strep. uberis SPU1; [17],0.312 µg/mL
same,MIC,"[4]; Staphylococcus aureus, 18 h",1.25 µg/mL
same,MIC,M. suipneumoniae Str. 11; [18],0.25 µg/mL
same,MIC,[5],2 µg/mL
same,MIC,Past. haemolytica PA5; [19],> 80 µg/mL
same,MIC,M. pneumoniae ATCC 15492; [20],1 µg/mL
same,MIC,M. suipneumoniae JF 435; [21],0.5 µg/mL
same,MIC,[6]; [22],2 µg/mL
same,MIC,"M. bovis NCTC 10131; NCTC10131, 144 h",0.05 µg/mL
same,MIC,[7]; [23],0.5 µg/mL
same,MIC,[8],8 µg/mL
same,MIC,[9]; [24],4 µg/mL
same,MIC,"[10]; 144 h, read-out: MIC",0.5 µg/mL
same,MIC,[11]; [25],> 64 µg/mL
same,MIC,"[12]; CY1, 18 h",> 80 µg/mL
same,MIC,M. gallisepticum S6; [26],2.5 µg/mL
same,MIC,"Staph. aureus Oxford; Staphylococcus aureus, 18 h",1.25 µg/mL
same,MIC,M. suipneumoniae NB12; [27],0.5 µg/mL
same,MIC,E. coli NCTC 10418; [28],> 80 µg/mL
"C/C(=C\c1ncc(-c2ccccc2[N+](=O)[O-])o1)C[C@@H]1OC[C@H](C[C@@H]2O[C@H]2[C@@H](C)[C@H](C)O)[C@@H](O)[C@H]1O [Example 26, 5-o-Nitrophenyl-2-(1-normon-2-yl)oxazole A]",MIC,S. typhimurium S18; [13],> 80 µg/mL
same,MIC,[1]; 144 h,0.25 µg/mL
same,MIC,[2]; [15],5 µg/mL
same,MIC,[3]; [16],> 80 µg/mL
same,MIC,Strep. uberis SPU1; [17],0.156 µg/mL
same,MIC,"[4]; Staphylococcus aureus, 18 h",2.5 µg/mL
same,MIC,"M. suipneumoniae Str. 11; Mesomycoplasma hyopneumoniae, STR.11, 144 h",2.5 µg/mL
same,MIC,"M. pneumoniae ATCC 15492; Mycoplasmoides pneumoniae, ATCC15492, 144 h",2.5 µg/mL
same,MIC,"M. suipneumoniae JF 435; Mesomycoplasma hyopneumoniae, JF435, 144 h",2.5 µg/mL
same,MIC,"[6]; Haemophilus influenzae, WY21, 18 h",0.25 µg/mL
same,MIC,"M. bovis NCTC 10131; NCTC10131, 144 h",0.025 µg/mL
same,MIC,[7]; [23],5 µg/mL
same,MIC,[9]; [24],1 µg/mL
same,MIC,"[10]; 144 h, read-out: MIC",0.5 µg/mL
same,MIC,[11]; [25],> 128 µg/mL
same,MIC,"B. subtilis ATCC 6633; Bacillus subtilis, ATCC6633, 18 h",0.312 µg/mL
same,MIC,"[12]; CY1, 18 h",> 80 µg/mL
same,MIC,"M. gallisepticum S6; Mycoplasmoides gallisepticum, S6, 144 h",2.5 µg/mL
same,MIC,"Staph. aureus Oxford; Staphylococcus aureus, 18 h",2.5 µg/mL
same,MIC,"M. suipneumoniae NB12; NB12, 144 h",2.5 µg/mL
same,MIC,E. coli NCTC 10418; [28],> 80 µg/mL
"C/C(=C\c1ncc(-c2ccccc2)s1)C[C@@H]1OC[C@H](C[C@@H]2O[C@H]2[C@@H](C)[C@H](C)O)[C@@H](O)[C@H]1O [Example 29, 2-(1-Normon-2-yl)-5-phenylthiazole A]",MIC,S. typhimurium S18; [13],> 80 µg/mL
same,MIC,[1]; 144 h,1 µg/mL
same,MIC,[2]; [15],> 10 µg/mL
same,MIC,[3]; [16],> 80 µg/mL
same,MIC,Strep. uberis SPU1; [17],5 µg/mL
same,MIC,"[4]; Staphylococcus aureus, 18 h",10 µg/mL
same,MIC,M. suipneumoniae Str. 11; [18],10 µg/mL
same,MIC,[5],50 µg/mL
same,MIC,Past. haemolytica PA5; [19],> 80 µg/mL
same,MIC,M. pneumoniae ATCC 15492; [20],> 10 µg/mL
same,MIC,M. suipneumoniae JF 435; [21],> 10 µg/mL
same,MIC,[6]; [22],50 µg/mL
same,MIC,"M. bovis NCTC 10131; NCTC10131, 144 h",0.5 µg/mL
same,MIC,[7]; [23],> 10 µg/mL
same,MIC,[8],50 µg/mL
same,MIC,[9]; [24],50 µg/mL
same,MIC,"[10]; 144 h, read-out: MIC",> 10 µg/mL
same,MIC,[11]; [25],> 100 µg/mL
same,MIC,"[12]; CY1, 18 h",> 80 µg/mL
same,MIC,M. gallisepticum S6; [26],> 10 µg/mL
same,MIC,"Staph. aureus Oxford; Staphylococcus aureus, 18 h",10 µg/mL
same,MIC,M. suipneumoniae NB12; [27],10 µg/mL
same,MIC,E. coli NCTC 10418; [28],> 80 µg/mL
"CC(=Cc1cnc(-c2ccccc2)o1)CC1OCC(CC2OC2C(C)C(C)O)C(O)C1O (stereo not drawn) [Example 35, 5-(1-Normon-2-yl)-2-phenyloxazole A]",MIC,"S. typhimurium S18; S. typhimurium S18, Diagnostic Sensitivity Test Agar, 18 hours",> 80 µg/mL
same,MIC,"[1]; M. bovigenitalium ATCC 14173, 6 days, 37° C.",5.0 µg/mL
same,MIC,[2],> 10 µg/mL
same,MIC,"[3]; Erysipelothrix rhusiopathiae NCTC 8163, Diagnostic Sensitivity Test Agar, 18 hours",> 80 µg/mL
same,MIC,"Strep. uberis SPU1; Strep. uberis SPU1, Diagnostic Sensitivity Test Agar, 18 hours",80 µg/mL
same,MIC,"[4]; Staph. aureus 152 (pen. sens), Diagnostic Sensitivity Test Agar, 18 hours",> 80 µg/mL
same,MIC,"M. suipneumoniae Str. 11; M. suipneumoniae Str. 11, 6 days, 37° C.",> 10 µg/mL
same,MIC,"Past. haemolytica PA5; Past. haemolytica PA5, Diagnostic Sensitivity Test Agar, 18 hours",> 80 µg/mL
same,MIC,"M. pneumoniae ATCC 15492; M. pneumoniae ATCC 15492, 6 days, 37° C.",> 10 µg/mL
same,MIC,"M. suipneumoniae JF 435; M. suipneumoniae JF 435, 6 days, 37° C.",> 10 µg/mL
same,MIC,"[6]; Haemophilus influenzae Wy21, 5% chocolated horse blood agar, 18 hours",128 µg/mL
same,MIC,"M. bovis NCTC 10131; M. bovis NCTC 10131, 6 days, 37° C.",2.5 µg/mL
same,MIC,[7],> 10 µg/mL
same,MIC,[9],> 128 µg/mL
same,MIC,[10],> 10 µg/mL
same,MIC,[11],> 128 µg/mL
same,MIC,"B. subtilis ATCC 6633; B. subtilis ATCC 6633, Diagnostic Sensitivity Test Agar, 18 hours",> 80 µg/mL
same,MIC,"[12]; Corynebacterium pyogenes CY1, Diagnostic Sensitivity Test Agar, 18 hours",> 80 µg/mL
same,MIC,"M. gallisepticum S6; M. gallisepticum S6, 6 days, 37° C.",> 10 µg/mL
same,MIC,"Staph. aureus Oxford; Staph. aureus Oxford, Diagnostic Sensitivity Test Agar, 18 hours",> 80 µg/mL
same,MIC,"E. coli NCTC 10418; E. coli NCTC 10418, Diagnostic Sensitivity Test Agar, 18 hours, 37° C.",> 80 µg/mL
"C/C(=C\c1nc(-c2ccccc2)c(-c2ccccc2)o1)C[C@@H]1OC[C@H](C[C@@H]2O[C@H]2[C@@H](C)[C@H](C)O)[C@@H](O)[C@H]1O [Example 41, 4,5-Diphenyl-2-(1-normon-2-yl)oxazole A]",MIC,S. typhimurium S18; [13],> 80 µg/mL
same,MIC,[1]; [14],5 µg/mL
same,MIC,[2]; [15],> 10 µg/mL
same,MIC,[3]; [16],> 80 µg/mL
same,MIC,Strep. uberis SPU1; [17],10 µg/mL
same,MIC,"[4]; Staphylococcus aureus, 18 h",40 µg/mL
same,MIC,M. suipneumoniae Str. 11; [18],> 10 µg/mL
same,MIC,[5],10 µg/mL
same,MIC,Past. haemolytica PA5; [19],> 80 µg/mL
same,MIC,M. pneumoniae ATCC 15492; [20],> 10 µg/mL
same,MIC,M. suipneumoniae JF 435; [21],> 10 µg/mL
same,MIC,[6]; [22],25 µg/mL
same,MIC,"M. bovis NCTC 10131; NCTC10131, 144 h",2.5 µg/mL
same,MIC,[7]; [23],> 10 µg/mL
same,MIC,[8],25 µg/mL
same,MIC,[9]; [24],> 100 µg/mL
same,MIC,"[10]; 144 h, read-out: MIC",> 10 µg/mL
same,MIC,[11]; [25],> 100 µg/mL
same,MIC,"[12]; CY1, 18 h",40 µg/mL
same,MIC,M. gallisepticum S6; [26],> 10 µg/mL
same,MIC,"Staph. aureus Oxford; Staphylococcus aureus, 18 h",40 µg/mL
same,MIC,M. suipneumoniae NB12; [27],> 10 µg/mL
same,MIC,E. coli NCTC 10418; [28],> 80 µg/mL

# — patent publication US5041567A, “Antibacterial monic acid derivatives” (Beecham Group plc, priority 1982, dated 1991)
